Measured values from patent US8021658B2, “Alternative splice forms of proteins as basis for multiple therapeutic modalities” (Thomas Jefferson University, priority 2001, dated 2011).
Bridges are numbered along the chain shown (N, C = ends). Roman numbers before positions name the chains, in order. Where no end group is shown, it is not given here.

Assays:
HC2 20d2/c tumor cells = test: Regression of HC2 20d2/c tumors in mice vaccinated with VEGF peptides; format: in vivo; settings: FIG. 2; for reduction in average tumor volume: by the end of the study; for tumor regression (average tumor volume vs. time): mice injected with HC2 20d2/c tumor cells, vaccinated four days post-injection with peptide plus murine GM-CSF
Procedure: The VEGF peptides and the SEQ ID NO: 85 homodimer were evaluated for their ability to elicit an anti-tumor immune response in a mouse tumor model. A total of 112 syngeneic mice were divided into eight treatment groups of 14 mice each, and injected with HC2 20d2/c tumor cells. Four days post-injection, the first through fifth treatment groups were vaccinated in the left inguinal area with 100 μg of either SEQ ID NO: 73, SEQ ID NO: 75, SEQ ID NO: 77, SEQ ID NO: 79, or the SEQ ID NO: 81 dimer diluted in 100 μl of PBS mixed with 45 ng of murine GM-CSF as an adjuvant. The total volume of phosphate buffered saline (PBS) was 150 microliters with 2 mg/ml mouse serum albumin as a carrier. The sixth treatment group was vaccinated as above with a combination of all four VEGF peptides and the SEQ ID NO: 81 homodimer (60 μg each) in a total of 200 microliters of PBS with 45 ng of murine GM-CSF and 2 mg/ml mouse serum albumin. The seventh treatment group was vaccinated as above with 100 μg of a peptide derived from a mutant epidermal growth factor receptor (EGFR) protein called EGFRvIII (SEQ ID NO: 82). The vaccine composition also contained 45 ng of murine GM-CSF and 2 mg/ml mouse serum albumin. The EGFRvIII mutation is the result of a genomic rearrangement in the EGFR gene, and the EGFRvIII peptide (SEQ ID NO: 82) is reported to induce an immune response against tumor cells expressing the mutant receptor. The eighth treatment group was vaccinated with GM-CSF and 2 mg/ml mouse serum albumin in PBS with no peptide, as a control. All treatment groups were then injected once daily for the next 3 days with the 45 ng GM-CSF in the original area of vaccination.

[1] = test system: HC2 20d2/c tumor cells pulsed with the immunizing peptide; test: ELISPOT assay (anti-interferon-gamma) of cytotoxic T lymphocyte activity of splenocytes from immunized mice; format: cell-based; settings: FIG. 5; for CTL response compared with mouse treated with SEQ ID NO: 82 (EGFRvIII): mice which had undergone tumor regression
Procedure: Briefly, the ELISPOT method is performed by coating a cell culture dish or well with a cytokine capture antibody, for example an anti-interferon gamma antibody. The unoccupied spots on the culture dish or well are then blocked with a non-specific binding protein. Target cells, for example tumor cells, that endogenously synthesize the alternative splice form which has been used to stimulate PBLs are added to the culture dish or well. Alternatively, target cells can be pulsed with the peptide of interest. Activated PBLs are then added to the culture dish or well. If the activated PBLs specifically lyse the target cells, the PBLs secrete cytokines such as interferon-gamma, which is captured by the cytokine capture antibody initially coated onto the culture dish or well. A secondary antibody that recognized a different epitope of interferon gamma is then used to detect the presence of any interferon-gamma secreted by the PBLs and captured by the cytokine capture antibody. The secondary antibody can be conjugated with a detectable label, such as fluorescent or radioactive label. Identification of peptides of the invention which induce MHC-restricted cytotoxic T lymphocyte responses by the ELISPOT method is shown in Example 5 below.
Splenocytes from mice inoculated with GM-CSF only were used as a control (“control”). HC2 20d2/c tumor cells pulsed with 10 micrograms/ml of the immunizing peptide, or mouse serum albumin (for splenocytes from GM-CSF only treated animals) were used as the target cells for the treatment and control splenocytes, respectively. Untreated HC2 20d2/c tumor cells were used as negative control target cells.
The splenocytes were incubated at various ratios (from 10:1 to 2:1) with target cells in triplicate, and lytic events were identified with an ELISPOT assay using anti-interferon-gamma antibody as the cytokine capture antibody. The specific spots per 10^6 cells were quantitated using the lytic events from untreated target cells as the background, and then performing linear regression analysis.

[2] = splenocytes of immunized mice which had undergone tumor regression, target cells pulsed with the vaccinating peptide

Substance | reduction in average tumor volume (HC2 20d2/c tumor cells; HC2 20d2/c tumor model) | tumor regression (average tumor volume vs. time) (HC2 20d2/c tumor cells) | CTL response compared with mouse treated with SEQ ID NO: 82 (EGFRvIII) [1] | CTL response (ELISPOT) [1, 2] | CTL response (ELISPOT) ([1]; splenocytes of vaccinated mouse which had not undergone tumor regression) | time at which tumor regression is most notable (HC2 20d2/c tumor cells; HC2 20d2/c tumor model) | time until which regression is seen (HC2 20d2/c tumor cells; HC2 20d2/c tumor model) | tumor progression (HC2 20d2/c tumor cells; HC2 20d2/c tumor model) | tumor progression (HC2 20d2/c tumor cells; HC2 20d2/c tumor model, listed as SEQ ID NO: 81) | duration of initial tumor progression (HC2 20d2/c tumor cells; HC2 20d2/c tumor model, after vaccination)
L E R S E S C E D R C P (LERSESCEDRCP; VEGFD alt splice #2 peptide) [SEQ ID NO: 79, peptide encoded by alternatively spliced murine VEGFD mRNA] | strong reduction in average tumor volumes |  |  |  |  |  |  |  |  | 
R T K P E K C D K P R R (RTKPEKCDKPRR; VEGF alt splice #1) [SEQ ID NO: 73, peptide encoded by alternatively spliced mouse VEGF mRNA] |  | pattern of regression similar to that found for the EGFRvIII peptide | greater than that seen for the mouse treated with SEQ ID NO: 82 | strong CTL responses | poor CTL responses |  |  |  |  | 
RTKPEKCDKPRRC (disulfide I:13-II:13; cysteine pairing not given here) [SEQ ID NO: 81 homodimer] | strong reduction in average tumor volumes | induce tumor regression to some degree |  |  |  | 12 days after vaccination | ~20 days after vaccination | initially shows tumor progression | progress from that point onward | 
SEQ ID NO: 82: peptide derived from a mutant epidermal growth factor receptor (EGFR) protein called EGFRvIII (LEEKKGNYVVTDHC; EGFRvIII peptide) [reference compound] |  | distinct regression noted thereafter |  |  |  |  |  | progression was not as dramatic as the control mice |  | approximately 5 days
V V K Q L V Q T P P L P P (VVKQLVQTPPLPP; VEGFB alt splice #1 peptide) [SEQ ID NO: 75, peptide encoded by alternatively spliced murine VEGFB mRNA] |  |  | greater than that seen for the mouse treated with SEQ ID NO: 82 | strong CTL responses |  |  | ~20 days after vaccination | progress from that point onward |  | 
